From patent publication US9809562B2, “NAT10 modulators for treating or preventing laminopathies, aging and cancer” (CAMBRIDGE ENTERPRISE LIMITED, priority 2014, dated 2017)
Where a name gives a salt, the structure may show the parent alone.

Key:
[1] = system: Lamin A/C depleted (siLMNA) U2OS cells; experiment: Nuclear shape rescue (DAPI staining, nuclear circularity) in Lamin A/C depleted cells; assay type: cell-based, human; conditions: 16 hours, Compound 2 and 3 50 μM, MB-3 5 μM, FTI 5 μM, nocodazole 200 ng/ml, colchicine 1 μg/ml, latrunculin A 1 μM
Description: (§1) U2OS and SaOS-2 osteosarcoma cells, HeLa cervical cancer cells, A431 melanoma cells, NCI-SNU5 gastric cancer cells, MRC-5 lung fibroblast cells and Werner syndrome patient-derived SV40 fibroblast cells were grown in Dulbecco's modified Eagle medium (DMEM, Sigma-Aldrich) supplemented with 10% fetal bovine serum (BioSera), 2 mM L-glutamine, 100 U per ml penicillin, 100 μg ml^−1 streptomycin. Normal skin primary fibroblasts GM03440 and Hutchinson Gilford Progeria Syndrome (HGPS) skin primary fibroblasts AG11498 and AG06297 were purchased from Coriell Cell Repositories and used between passage number 9-12 and 20-23 respectively. Cells were grown in DMEM supplemented as above. RPE-1 retinal pigment epithelial cells were grown in DMEM and Ham F12 mix medium supplemented as above and buffered with sodium bicarbonate. HMV-II melanoma cell line, 22RV1 prostate carcinoma cells, NCI-H82 and NCI-H69 lung carcinoma cells, and NCI-N87 gastric cancer cell lines were grown in RPMI-1640 medium (Sigma-Aldrich) supplemented as above. Stably transfected U2OS cells were maintained in standard medium containing 1 mg ml^−1 G418 (Invitrogen). The siRNA duplexes were obtained from Life Sciences: Lamin A/C stealth RNAi: […] (SEQ ID NO: 1) and […] (SEQ ID NO: 2), NAT10 stealth RNAi: […] (SEQ ID NO: 3), and as control siRNA, stealth RNAi negative control duplexes were used. Plasmid DNA and siRNA transfections were carried out using Lipofectamine 2000 and Lipofectamine RNAiMax (Life Sciences) respectively, following the manufacturer's instructions. Cells were analysed 48 to 72 hours after transfection.
(§2) The following KAT and KDAC inhibitors were used in the nuclear shape rescue screen, incubating cells with the molecules for 16 hours: trichostatin A (1 μM), sodium butyrate (5 mM), tubacin (10 μM), SAHA (5 μM), curcumin (10 μM), garcinol (50 μM), anacardic acid (1 μM), MB-3 (5 μM), 4-(4-chlorophenyl)-2-(2-cyclopentylidenehydrazinyl)thiazole (Compound 2) (50 μM), 4-(4-chlorophenyl)-2-(2-cyclopentylidene-1-(prop-2-yn-1-yl)hydrazinyl)thiazole (Compound 3) (50 μM) and cyclopentylidene-[4-(4-cyanophenyl)thiazol-2-yl)hydrazine (Compound 1) (Remodelin) (10 to 50 μM). For HGPS cellular fitness assays, Remodelin was incubated at 1 μM for 1 to 10 days, renewing the medium every 3 days. For long-term senescence assay, cells were kept and passaged in medium containing 1 μM Remodelin or DMSO only for 12 population doublings. Senescence was assessed after 8 days of Remodelin treatment when cells were at Population Doubling 12, and then after several weeks of Remodelin treatment, when cells reached Population Doubling 24 using the Senescence β-Galactosidase Staining Kit #9860 from Cell Signaling. Nocodazole, colchicine and latrunculin A (Sigma-Aldrich) were used at 200 ng/ml, 1 μg/ml and 1 μM respectively. Aphidicolin (Sigma-Aldrich) was used at 5 μg/ml for 16 h. Farnesyltransferase inhibitor FTI-277 was purchased from Tocris Bioscience and used at 5 μM. ATMi (KU55933) and ATRi (ATR-45) were obtained from Tocris Bioscience and from the Ohio State University respectively and used at 10 μM and 500 nM. Pifithrin alpha (Sigma-Aldrich) was used at 10 μM.
CellProfiler software was used to quantify nuclear circularity and nuclear area from DAPI staining pictures, using the “object size shape” measurement. The AreaShape measurement allowed the calculation of the Form Factor index ([…]) corresponding to circularity (a Form Factor of 1 reflecting a perfect circle), as well as the calculation of nuclear Area.
Lamin A/C was depleted by siRNA in U2OS cells (siLMNA) to induce misshapen nuclei. Cells were then treated for 16 h with various analogues of Compound 2 and nuclear shape rescue was analysed by DAPI staining. The results are shown in FIG. 18 and FIG. 19 which display the structures of the tested molecules and their ability to rescue nuclear shape.

[2] = system: HGPS primary fibroblasts (AG11498 and AG06267); experiment: Misshapen nuclei in HGPS cells; assay type: cell-based, human; conditions: HGPS patient fibroblasts
Description: as §1
as §2, with “Aphidicolin (Sigma-Aldrich) was used at 5 μg/ml for 16 h. Farnesyltransferase inhibitor FTI-277 was purchased from Tocris Bioscience and used at 5 μM. ATMi (KU55933) and ATRi (ATR-45) were obtained from Tocris Bioscience and from the Ohio State University respectively and used at 10 μM and 500 nM. Pifithrin alpha (Sigma-Aldrich) was used at 10 μM.” left out

[3] = system: U2OS cells transfected with siCT or siLMNA; experiment: Cell density after cycloheximide (DAPI staining); assay type: cell-based, human; conditions: 24 h treatment
Description: FIG. 16: Compound 2 decreases protein translation of Lamin A/C depleted cells. A) U2OS cells transfected with siRNA control (siCT) or siRNA Lamin A/C (siLMNA) were plated at the same density, treated with cycloheximide (CHX) for 24 h to inhibit protein synthesis and stained with DAPI. […] B) Protein synthesis was measured by quantifying the incorporation of HPG, a clickable analogue of methionine.

HGPS AG11498 cells = experiment: Senescence-associated β-galactosidase in HGPS cells; assay type: cell-based, human; conditions: HGPS AG11498; Remodelin 1 μM, Pifithrin alpha 10 μM
Description: as §2

[4] = system: LMNA knock out (KO) U2OS cell line; experiment: Cell growth of LMNA KO versus LMNA WT U2OS cells (IncuCyte ZOOM); assay type: cell-based, human; conditions: U2OS LMNA KO
Excerpt: LMNA knock out (KO) U2OS cell line was engineered using CripR/Cas9 technology. The sensitivity of LMNA KO cells to Compound 2 was compared to cells expressing wild type LMNA (LMNA WT). Cell growth was monitored automatically over time using an IncuCyte ZOOM®. The results are shown in FIG. 21 which has been split into two graphs for easier reading of the curves.

[5] = system: cells (sub-cellular distribution); experiment: Fluorescent labelling of clickable molecules (sub-cellular distribution); assay type: cell-based; conditions: 2 hours pre-incubation, Alexa fluor 488 Azide click
Description: Cells were pre-incubated with clickable molecules Compound 3 or Reference Compound A (1-Chloro-4-ethynilbenzene, purchased from Sigma-Aldrich) for 2 hours before being fixed and permeabilised as described above. Click reaction was prepared using Invitrogen Click-iT reagents with Alexa fluor 488 Azide and incubated with fixed cells for 1 hour in the dark. In case of co-labelling with another protein, the click reaction was performed before the antibody incubations.

[6] = system: farnesyltransferase activity (pre-Lamin A cleavage and maturation); experiment: Lamin A processing by western blotting; assay type: cell-based, human
Description: as §2, with “Nocodazole, colchicine and latrunculin A (Sigma-Aldrich) were used at 200 ng/ml, 1 μg/ml and 1 μM respectively. Aphidicolin (Sigma-Aldrich) was used at 5 μg/ml for 16 h. Farnesyltransferase inhibitor FTI-277 was purchased from Tocris Bioscience and used at 5 μM. ATMi (KU55933) and ATRi (ATR-45) were obtained from Tocris Bioscience and from the Ohio State University respectively and used at 10 μM and 500 nM. Pifithrin alpha (Sigma-Aldrich) was used at 10 μM.” left out
Total cell extracts were prepared by scraping cells in SDS lysis buffer (4% SDS, 20% glycerol, and 120 mM Tris-HCl, pH 6.8), boiling for 5 minutes at 95° C., followed by 10 strokes through a 25-gauge needle. […] Detection and quantification was performed with an imager (Odyssey; LI-COR Biosciences).

normal human fibroblasts = experiment: Nuclear shape of normal fibroblasts, with or without FTI; assay type: cell-based
Excerpt: FIG. 11: Remodelin prevents FTI induced nuclear shape defects in non-progeric cells. A) Analysis of Lamin A/C processing after Remodelin or FTI treatment, showing that Remodelin is not a FTI. B) Representative pictures of Lamin A/C IF staining after the indicated treatments. Arrows indicate FTI induced misshapen nuclei in normal fibroblasts. Scale bar: 50 μm. C) Quantification of misshapen nuclei with the indicated cell lines and inhibitor treatments (means of three independent experiments±s.e.m. n>178). D) Representative pictures of DAPI staining showing effects of FTI and Remodelin on nuclear shape of U2OS cells. Scale bars: 20 μm.
U2OS and SaOS-2 osteosarcoma cells, HeLa cervical cancer cells, A431 melanoma cells, NCI-SNU5 gastric cancer cells, MRC-5 lung fibroblast cells and Werner syndrome patient-derived SV40 fibroblast cells were grown in Dulbecco's modified Eagle medium (DMEM, Sigma-Aldrich) supplemented with 10% fetal bovine serum (BioSera), 2 mM L-glutamine, 100 U per ml penicillin, 100 μg ml^−1 streptomycin. […] Cells were analysed 48 to 72 hours after transfection.
The following KAT and KDAC inhibitors were used in the nuclear shape rescue screen, incubating cells with the molecules for 16 hours: trichostatin A (1 μM), sodium butyrate (5 mM), tubacin (10 μM), SAHA (5 μM), curcumin (10 μM), garcinol (50 μM), anacardic acid (1 μM), MB-3 (5 μM), 4-(4-chlorophenyl)-2-(2-cyclopentylidenehydrazinyl)thiazole (Compound 2) (50 μM), 4-(4-chlorophenyl)-2-(2-cyclopentylidene-1-(prop-2-yn-1-yl)hydrazinyl)thiazole (Compound 3) (50 μM) and cyclopentylidene-[4-(4-cyanophenyl)thiazol-2-yl)hydrazine (Compound 1) (Remodelin) (10 to 50 μM). […] Senescence was assessed after 8 days of Remodelin treatment when cells were at Population Doubling 12, and then after several weeks of Remodelin treatment, when cells reached Population Doubling 24 using the Senescence β-Galactosidase Staining Kit #9860 from Cell Signaling. […]

Row | Compound | nuclear shape / nuclear circularity rescue [1] | misshapen nuclei / nuclear shape of HGPS cells [2] | other results
1 | COc1cc2c(c(OC)c1OC)-c1ccc(OC)c(=O)cc1[C@@H](NC(C)=O)CC2 [colchicine] | also rescued the nuclear shape defects of siLMNA cells | also rescued the nuclear shape defects | 
2 | C[C@@H]1C[C@@H]([C@H](O)CC2CC(=O)NC(=O)C2)C(=O)[C@@H](C)C1 [CHX, cycloheximide] |  |  | resistance of siLMNA versus siCT cells to protein synthesis inhibition [3]: siLMNA cells are more resistant to CHX
3 | Pifithrin [reference compound] |  |  | senescence of HGPS cells (β-galactosidase positive cells) (HGPS AG11498 cells): none of these compounds decrease the senescence
4 | COC(=O)Nc1nc2ccc(C(=O)c3cccs3)cc2[nH]1 [nocodazole] | also rescued the nuclear shape defects of siLMNA cells | also rescued the nuclear shape defects | 
5 | C/C1=C/C(=O)O[C@@H]2C[C@@H](CC[C@H](C)/C=C\C=C\CC1)O[C@@](O)([C@@H]1CSC(=O)N1)C2 [latrunculin A] | increased nuclear distortion |  | 
6 | C=C1C(=O)OC(CCC)C1C(=O)O (stereo not drawn) [MB-3] | did not improve nuclear circularity |  | 
7 | FC(F)(F)c1ccc(-c2csc(NN=C3CCCC3)n2)cc1 [Compound 13, 4-(4-Trifluoromethylphenyl)-2-(2-cyclopentylidenehydrazinyl)thiazole Hydrobromide Salt] |  |  | potency on LMNA KO cell growth inhibition compared to Compound 2 [4]: increased potency of Compound 13, compared to Compound 2
8 | C#Cc1ccc(Cl)cc1 [Reference Compound A, 1-Chloro-4-ethynilbenzene, reference compound] | inactive |  | sub-cellular distribution of fluorescently labelled molecule [5]: little or no cellular staining
9 | COC(=O)[C@H](CCSC)NC(=O)c1ccc(NC[C@@H](N)CS)cc1-c1ccccc1 [FTI, reference compound] | does not improve nuclear morphology in LMNA-depleted cells | improves the nuclear shape of HGPS cells | pre-Lamin A processing [6]: caused accumulation of the pre-Lamin A intermediate; nuclear shape of normal cells (normal human fibroblasts): has the opposite effect on normal cells
